Assay results: patent US20220289753A1, “SHP2 INHIBITORS” (IRBM S.P.A., priority 2019, published 2022)
pIC50: −log10 of the molar value.

Target: T1, SHP-2 enzyme (Met1-Leu525) (Homo sapiens, UniProt Q06124)
T1 construct: synthetized by Origene, Met1-Leu525, cat #TP750155; purchased Origene TP750155
T1 sequence (Q06124 1-525): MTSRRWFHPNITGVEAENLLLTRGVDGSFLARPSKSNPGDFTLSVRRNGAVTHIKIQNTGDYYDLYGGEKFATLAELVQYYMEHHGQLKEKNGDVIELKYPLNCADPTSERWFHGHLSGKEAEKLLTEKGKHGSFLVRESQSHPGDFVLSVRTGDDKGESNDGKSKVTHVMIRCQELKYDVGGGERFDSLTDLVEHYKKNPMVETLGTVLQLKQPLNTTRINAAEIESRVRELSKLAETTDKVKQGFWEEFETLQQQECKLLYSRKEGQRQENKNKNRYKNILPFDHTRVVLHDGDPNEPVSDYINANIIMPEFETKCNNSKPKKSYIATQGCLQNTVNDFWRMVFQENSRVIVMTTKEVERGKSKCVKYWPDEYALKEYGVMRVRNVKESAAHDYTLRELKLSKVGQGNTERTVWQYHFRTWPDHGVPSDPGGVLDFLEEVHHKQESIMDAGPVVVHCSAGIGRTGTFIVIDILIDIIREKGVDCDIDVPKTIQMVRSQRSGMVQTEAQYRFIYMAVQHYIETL
Assay: SHP2 inhibition enzymatic assay (DiFMUP substrate, IRS1 peptide activation)
Format: biochemical
Details: SHP2 wt; activated by 500 nM IRS1 peptide; 75 μM DiFMUP substrate
Method: SHP2 Inhibition Enzymatic Assay
Assay volume of 20 μL/well was assembled in 384 well black polystyrene low-binding microplates (Greiner), using the following buffer: 60 mM HEPES pH 7.2, 75 mM NaCl, 75 mM KCl, 1 mM EDTA pH 8, 0.05% tween-20, 5 mM DTT. The SHP-2 enzyme (synthetized by Origene, Met1-Leu525, cat #TP750155) was used at a final concentration of 0.5 nM.
Briefly, DMSO serially diluted testing compounds were transferred to the bottom of the assay plate. SHP2 was then added together with the IRS1 peptide. 30 minutes post incubation, the DiFMUP substrate was added to the reaction and incubated 30 min at room temperature. […] The fluorescence was detected by a microplate reader (Envision, PerkinElmer) according to the DiFMUP excitation and emission wavelength. The lower the fluorescence the higher the SHP2 inhibition.
The percentage inhibition is fitted against the compound dilutions with a four-parameter logistic regression. The inflection point (i.e. the concentration at which half-maximal inhibition is achieved) is the IC50.

Row | pIC50 | Structure (SMILES)
1 | 5.52 to 6.30 | Cn1c(N2CCC(C)(N)CC2)nc2ncc(Sc3cccnc3C(F)(F)F)nc21 [Example 4, 4-methyl-1-(1-methyl-6-((2-(trifluoromethyl)pyridin-3-yl)thio)-1H-imidazo[4,5-b]pyrazin-2-yl)piperidin-4-amine]
2 | 5.52 to 6.30 | FC(F)(F)c1ncccc1Sc1cnc2[nH]c(N3CCC4(CCN4)CC3)nc2n1 [Example 5, 2-(1,7-diazaspiro[3.5]nonan-7-yl)-5-((2-(trifluoromethyl)pyridin-3-yl)thio)-1H-imidazo[4,5-b]pyrazine]
3 | 5.52 to 6.30 | Cn1ncc2cc(Sc3cnc4nc(N5CCC(C)(N)CC5)[nH]c4n3)ccc21 [Example 6, 4-methyl-1-(6-((1-methyl-1H-indazol-5-yl)thio)-1H-imidazo[4,5-b]pyrazin-2-yl)piperidin-4-amine]
4 | 5.52 to 6.30 | NC1CCN(c2nc3nc(Sc4cccnc4C(F)(F)F)cnc3[nH]2)CC1 [Example 7, 1-(5-((2-(trifluoromethyl)pyridin-3-yl)thio)-1H-imidazo[4,5-b]pyrazin-2-yl)piperidin-4-amine]
5 | 5.52 to 6.30 | NCC1CCN(c2nc3nc(Sc4cccnc4C(F)(F)F)cnc3[nH]2)CC1 [Example 8, (1-(5-((2-(trifluoromethyl)pyridin-3-yl)thio)-1H-imidazo[4,5-b]pyrazin-2-yl)piperidin-4-yl)methanamine]
6 | 5.52 to 6.30 | CC1(N)CCN(c2nc3ncc(Sc4csc5cnccc45)nc3[nH]2)CC1 [Example 9, 4-methyl-1-(6-(thieno[2,3-c]pyridin-3-ylthio)-1H-imidazo[4,5-b]pyrazin-2-yl)piperidin-4-amine]
7 | 5.52 to 6.30 | CC1(N)CCN(c2nc3ncc(Sc4ccc(-n5nc[nH]c5=O)cc4)nc3[nH]2)CC1 [Example 10, 2-(4-((2-(4-amino-4-methylpiperidin-1-yl)-1H-imidazo[4,5-b]pyrazin-6-yl)thio)phenyl)-2,4-dihydro-3H-1,2,4-triazol-3-one]
8 | 5.52 to 6.30 | CC1(N)CCN(c2nc3ncc(Sc4ccccc4)nc3[nH]2)CC1 [Example 11, 4-methyl-1-(6-(phenylthio)-1H-imidazo[4,5-b]pyrazin-2-yl)piperidin-4-amine]
9 | 5.52 to 6.30 | CC1(N)CCN(c2nc3ncc(Sc4cccnc4)nc3[nH]2)CC1 [Example 12, 4-methyl-1-(6-(pyridin-3-ylthio)-1H-imidazo[4,5-b]pyrazin-2-yl)piperidin-4-amine]
10 | 5.52 to 6.30 | CC1(N)CCN(c2nc3nc(Sc4cccnc4C(F)(F)F)cnc3n2CC2CC2)CC1 [Example 13, 1-(1-(cyclopropylmethyl)-5-((2-(trifluoromethyl)pyridin-3-yl)thio)-1H-imidazo[4,5-b]pyrazin-2-yl)-4-methylpiperidin-4-amine]
11 | < 5.52 | NC1CN(c2nc3nc(Sc4cccnc4C(F)(F)F)cnc3[nH]2)C1 [Example 15, 1-(5-((2-(trifluoromethyl)pyridin-3-yl)thio)-1H-imidazo[4,5-b]pyrazin-2-yl)azetidin-3-amine]
12 | 5.52 to 6.30 | CNC1CCN(c2nc3nc(Sc4cccnc4C(F)(F)F)cnc3[nH]2)CC1 [Example 16, N-methyl-1-(5-((2-(trifluoromethyl)pyridin-3-yl)thio)-1H-imidazo[4,5-b]pyrazin-2-yl)piperidin-4-amine]
13 | 5.52 to 6.30 | FC(F)(F)c1ncccc1Sc1cnc2[nH]c(N3CC4(CCCNC4)C3)nc2n1 [Example 17, 2-(2,6-diazaspiro[3.5]nonan-2-yl)-5-((2-(trifluoromethyl)pyridin-3-yl)thio)-1H-imidazo[4,5-b]pyrazine]
14 | > 6.30 | CC1(N)CCN(c2nc3nc(Sc4ccc(C#N)cc4C(F)(F)F)cnc3[nH]2)CC1 [Example 19, 4-((2-(4-amino-4-methylpiperidin-1-yl)-1H-imidazo[4,5-b]pyrazin-5-yl)thio)-3-(trifluoromethyl)benzonitrile]
15 | > 6.30 | CC1(N)CCN(c2nc3nc(Sc4ccc(F)cc4F)cnc3[nH]2)CC1 [Example 20, 1-(5-((2,4-difluorophenyl)thio)-1H-imidazo[4,5-b]pyrazin-2-yl)-4-methylpiperidin-4-amine]
